Measurements as given in PubChem BioAssay AID280 (DTP/NCI, 2004).
Several values for one entry are separate records, joined by “and”; a condition that tells them apart may be missing. Equal values may be shown once. Toxic doses and inconclusive results are not listed.

Tested on: nude mice, LOX melanoma ip, survival T/C
Assay: NCI In Vivo Anticancer Drug Screen. Data for tumor model Human Amelanotic Melanoma (LOX) (intraperitoneal) in NU/NU BALB/C (nude) mice
Details: endpoint: median survival time, higher = longer survival
Experimental: The antitumor activity of compounds was measured in mice bearing transplantable tumors. Survival or tumor size were measured and the results are expressed as the measurement made in the treated group (T) divided by the measurement made in the vehicle treated control group (C). The tumor model used in this assay is Human Amelanotic Melanoma (LOX) (intraperitoneal) in NU/NU BALB/C (nude) mice

[1] = dose: 75.0 mg/kg/injection, schedule: Q04DX003 (ip), vehicle: saline with Tween-80
[2] = dose: 150.0 mg/kg/injection, schedule: Q04DX003 (ip), vehicle: saline with Tween-80
[3] = dose: 600.0 mg/kg/injection, schedule: Q04DX003 (ip), vehicle: saline with Tween-80
[4] = dose: 300.0 mg/kg/injection, schedule: Q04DX003 (ip), vehicle: saline with Tween-80

## O=NN(CCCl)C(=O)NCCCl
dose: 1.88 mg/kg/injection, schedule: Q01DX005 (ip), vehicle: saline + alcohol
  T/C: 122 % of control
dose: 2.5 mg/kg/injection, schedule: Q01DX015 (ip), vehicle: saline + alcohol
  T/C: 185 % of control
dose: 3.75 mg/kg/injection, schedule: Q01DX005 (ip), vehicle: saline + alcohol
  T/C: 163 % of control
dose: 5.0 mg/kg/injection, schedule: Q01DX001 (ip), vehicle: saline + alcohol
  T/C: 117 % of control
dose: 5.0 mg/kg/injection, schedule: Q01DX015 (ip), vehicle: saline + alcohol
  T/C: 193 % of control
dose: 7.5 mg/kg/injection, schedule: Q01DX005 (ip), vehicle: saline + alcohol
  T/C: 218 % of control
dose: 10.0 mg/kg/injection, schedule: Q04DX003 (ip), vehicle: saline + alcohol
  T/C: 185 % of control
dose: 12.0 mg/kg/injection, schedule: Q04DX003 (ip), vehicle: saline + alcohol
  T/C: 118 % of control
dose: 12.0 mg/kg/injection, schedule: Q04DX003 (iv), vehicle: saline + alcohol
  T/C: 220 % of control
dose: 15.0 mg/kg/injection, schedule: Q01DX005 (ip), vehicle: saline + alcohol
  T/C: 191 % of control
dose: 18.0 mg/kg/injection, schedule: Q04DX003 (ip), vehicle: saline + alcohol
  T/C: 116 % of control
dose: 18.0 mg/kg/injection, schedule: Q04DX003 (iv), vehicle: saline + alcohol
  T/C: 331 % of control
dose: 20.0 mg/kg/injection, schedule: Q01DX001 (ip), vehicle: saline + alcohol
  T/C: 177 % of control
dose: 20.0 mg/kg/injection, schedule: Q04DX003 (ip), vehicle: saline + alcohol
  T/C: 175 % of control
dose: 27.0 mg/kg/injection, schedule: Q04DX003 (ip), vehicle: saline + alcohol
  T/C: 116 % of control
dose: 27.0 mg/kg/injection, schedule: Q04DX003 (iv), vehicle: saline + alcohol
  T/C: 331 % of control
dose: 40.0 mg/kg/injection, schedule: Q01DX001 (ip), vehicle: saline + alcohol
  T/C: 171 % of control
dose: 40.0 mg/kg/injection, schedule: Q04DX003 (ip), vehicle: saline + alcohol
  T/C: 218 % of control
dose: 80.0 mg/kg/injection, schedule: Q01DX001 (ip), vehicle: saline + alcohol
  T/C: 196 % of control

## N[C@@H](Cc1ccc(N(CCCl)CCCl)cc1)C(=O)O
dose: 1.0 mg/kg/injection, schedule: Q01DX005 (ip), vehicle: water
  T/C: 155 % of control
dose: 1.0 mg/kg/injection, schedule: Q01DX015 (ip), vehicle: water
  T/C: 166 % of control
dose: 2.0 mg/kg/injection, schedule: Q01DX005 (ip), vehicle: water
  T/C: 258 % of control
dose: 2.0 mg/kg/injection, schedule: Q01DX015 (ip), vehicle: water
  T/C: 218 % of control
dose: 2.5 mg/kg/injection, schedule: Q01DX001 (ip), vehicle: water
  T/C: 171 % of control
dose: 2.5 mg/kg/injection, schedule: Q04DX003 (ip), vehicle: water
  T/C: 162 % of control
dose: 4.0 mg/kg/injection, schedule: Q01DX005 (ip), vehicle: water
  T/C: 344 % of control
dose: 4.0 mg/kg/injection, schedule: Q01DX015 (ip), vehicle: water
  T/C: 344 % of control
dose: 5.0 mg/kg/injection, schedule: Q01DX001 (ip), vehicle: water
  T/C: 188 % of control
dose: 5.0 mg/kg/injection, schedule: Q04DX003 (ip), vehicle: water
  T/C: 241 % of control
dose: 6.0 mg/kg/injection, schedule: Q04DX003 (ip), vehicle: saline
  T/C: 111 % of control and 203 % of control
dose: 8.0 mg/kg/injection, schedule: Q01DX005 (ip), vehicle: water
  T/C: 344 % of control
dose: 9.0 mg/kg/injection, schedule: Q04DX003 (ip), vehicle: saline
  T/C: 122 % of control and 203 % of control
dose: 10.0 mg/kg/injection, schedule: Q01DX001 (ip), vehicle: water
  T/C: 344 % of control
dose: 10.0 mg/kg/injection, schedule: Q04DX003 (ip), vehicle: water
  T/C: 344 % of control
dose: 20.0 mg/kg/injection, schedule: Q01DX001 (ip), vehicle: water
  T/C: 344 % of control
dose: 20.0 mg/kg/injection, schedule: Q04DX003 (ip), vehicle: water
  T/C: 97 % of control

## CN(C)[C@@H]1C(=O)C(C(=O)NCN2CCN(C(=N)N=C(N)N)CC2)=C(O)[C@@]2(O)C(=O)C3=C(O)c4c(O)cccc4[C@@](C)(O)[C@H]3C[C@@H]12
dose: 1.25 mg/kg/injection, schedule: Q04DX003 (ip), vehicle: suspension in saline
  T/C: 114 % of control
dose: 2.5 mg/kg/injection, schedule: Q04DX003 (ip), vehicle: suspension in saline
  T/C: 107 % of control
dose: 3.6 mg/kg/injection, schedule: Q04DX003 (ip), vehicle: suspension in saline
  T/C: 112 % of control
dose: 5.0 mg/kg/injection, schedule: Q04DX003 (ip), vehicle: suspension in saline
  T/C: 114 % of control
dose: 6.0 mg/kg/injection, schedule: Q04DX003 (ip), vehicle: suspension in saline
  T/C: 105 % of control
dose: 10.0 mg/kg/injection, schedule: Q04DX003 (ip), vehicle: suspension in saline
  T/C: 103 % of control and 100 % of control
dose: 17.0 mg/kg/injection, schedule: Q04DX003 (ip), vehicle: suspension in saline
  T/C: 112 % of control
dose: 28.0 mg/kg/injection, schedule: Q04DX003 (ip), vehicle: suspension in saline
  T/C: 89 % of control

## COc1cc(C(C)c2cc3c(cc2OCCO)OCO3)cc(OC)c1OC (stereo unspecified)
[1]
  T/C: 114 % of control
[2]
  T/C: 94 % of control
[3]
  T/C: 152 % of control

## COc1cccc2c1C(CO)N1C(C#N)C3CC(C(=O)O)C(C1C2)N3C (stereo unspecified)
dose: 12.5 mg/kg/injection, schedule: Q04DX003 (ip), vehicle: saline
  T/C: 175 % of control
dose: 12.5 mg/kg/injection, schedule: Q04DX003 (ip), vehicle: suspension in saline
  T/C: 164 % of control
dose: 25.0 mg/kg/injection, schedule: Q04DX003 (ip), vehicle: saline
  T/C: 157 % of control

## C=CC1(C)CC(=O)C2(O)C(C)(O1)C(OC(C)=O)C(O)C1C(C)(C)CCC(O)C12C (stereo unspecified)
dose: 8.0 mg/kg/injection, schedule: Q04DX003 (ip), vehicle: DMSO
  T/C: 102 % of control
dose: 16.0 mg/kg/injection, schedule: Q04DX003 (ip), vehicle: DMSO
  T/C: 103 % of control
dose: 32.0 mg/kg/injection, schedule: Q04DX003 (ip), vehicle: DMSO
  T/C: 102 % of control
dose: 64.0 mg/kg/injection, schedule: Q04DX003 (ip), vehicle: DMSO
  T/C: 91 % of control

## O=C(Nc1cccc(Cl)c1)ON1C(=O)C2C(C1=O)C1(Cl)C(Cl)C(Cl)C2(Cl)C1(Cl)Cl (stereo unspecified)
[1]
  T/C: 99 % of control
[2]
  T/C: 86 % of control
[4]
  T/C: 90 % of control
[3]
  T/C: 101 % of control

## CC(CNC(=O)C12CC3CC(CC(C3)C1)C2)NC(=O)C12CC3CC(CC(C3)C1)C2 (stereo unspecified)
dose: 25.0 mg/kg/injection, schedule: Q04DX003 (ip), vehicle: DMSO
  T/C: 101 % of control
dose: 50.0 mg/kg/injection, schedule: Q04DX003 (ip), vehicle: DMSO
  T/C: 107 % of control
dose: 100.0 mg/kg/injection, schedule: Q04DX003 (ip), vehicle: DMSO
  T/C: 101 % of control
dose: 200.0 mg/kg/injection, schedule: Q04DX003 (ip), vehicle: DMSO
  T/C: 102 % of control

## O=C(CCCCCCC(=O)ON1C(=O)CCC1=O)ON1C(=O)CCC1=O
[1]
  T/C: 117 % of control
[2]
  T/C: 101 % of control
[4]
  T/C: 98 % of control

## COc1cc(C)c(C2NC(=O)c3ccccc3N2)cc1C (stereo unspecified)
dose: 600.0 mg/kg/injection, schedule: Q04DX003 (ip), vehicle: Klucel (hydroxypropylcellulose) (HPC)
  T/C: 166 % of control
dose: 1200.0 mg/kg/injection, schedule: Q04DX003 (ip), vehicle: Klucel (hydroxypropylcellulose) (HPC)
  T/C: 192 % of control

## CN(C)N=Nc1ccc(C(N)=O)cc1
dose: 22.5 mg/kg/injection, schedule: Q04DX003 (ip), vehicle: saline with Tween-80
  T/C: 99 % of control
dose: 45.0 mg/kg/injection, schedule: Q04DX003 (ip), vehicle: saline with Tween-80
  T/C: 120 % of control
dose: 180.0 mg/kg/injection, schedule: Q04DX003 (ip), vehicle: saline with Tween-80
  T/C: 153 % of control
dose: 360.0 mg/kg/injection, schedule: Q04DX003 (ip), vehicle: saline with Tween-80
  T/C: 210 % of control

## O=NNc1cccnc1
dose: 6.25 mg/kg/injection, schedule: Q04DX003 (ip), vehicle: water
  T/C: 100 % of control and 101 % of control
dose: 12.5 mg/kg/injection, schedule: Q04DX003 (ip), vehicle: water
  T/C: 109 % of control and 101 % of control
dose: 25.0 mg/kg/injection, schedule: Q04DX003 (ip), vehicle: water
  T/C: 113 % of control and 98 % of control
dose: 50.0 mg/kg/injection, schedule: Q04DX003 (ip), vehicle: water
  T/C: 114 % of control and 96 % of control
dose: 100.0 mg/kg/injection, schedule: Q04DX003 (ip), vehicle: water
  T/C: 103 % of control and 117 % of control
